Laboratory results reported in BindingDB's records for doi:10.1111/j.1747-0285.2012.01328.x (Technical University of LÓDz, 2012).

Each molecule was assayed against HIV-1 protease (Human immunodeficiency virus, UniProt O90785) (assay: Fluorometric Assay).
HIV-1 protease, sequence (O90785 whole entry): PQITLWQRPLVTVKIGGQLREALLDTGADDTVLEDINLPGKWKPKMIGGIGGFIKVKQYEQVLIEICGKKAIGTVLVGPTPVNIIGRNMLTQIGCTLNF
Description: The Ki value were determine by a fluorometric assay with the fluorogenic and chromogenic substrate.
Cc1c(O)cccc1C(=O)N[C@@H](Cc1ccccc1)[C@@H](O)C[C@H](Cc1ccccc1)NC(=O)c1ccccc1 [3-Hexanol derivative, 1] gave an IC50 of 1 nM and a Ki of 4.6 nM.
For Cc1ccccc1C(=O)N[C@@H](Cc1ccccc1)C[C@H](O)[C@H](Cc1ccccc1)NC(=O)c1ccccc1C [3-Hexanol derivative, 2], the IC50 was 3 nM and the Ki was 4.8 nM.
In the case of Cc1c(O)cccc1C(=O)N[C@@H](Cc1ccccc1)[C@@H](O)C[C@H](Cc1ccccc1)NC(=O)OC1CCOC1 (stereo partly drawn) [3-Hexanol derivative, 3], the IC50 is reported as 0.63 nM and the Ki is reported as 0.32 nM.
CC(C)[C@@H](C(=O)N[C@@H](Cc1ccccc1)[C@@H](O)C[C@H](Cc1ccccc1)NC(=O)OC(C)(C)C)N(C)C(=O)OCc1ccccn1 [3-Hexanol derivative, 4] was tested, and the IC50 was 0.17 nM and the Ki was 0.021 nM.
